Experimental data taken from paper PMC5808567 (Journal of medicinal chemistry, 2018).

How the values were obtained:
[1] = Metal chelation by UV spectroscopy, Fe3+; assay type: physicochemical; conditions: 100 µM E-3a, 10 mM ammonium acetate pH 7.0, anaerobic, metal 100 µM-5 mM
[2] = test system: normal mobilized peripheral blood progenitor cells; conditions: cited from earlier work
[3] = test system: HCT116 and MDA-MB-231 cell lines; assay: Growth inhibition assay, both cancer cell lines; assay type: cell-based; conditions: Homo sapiens, 72 h, read-out: growth inhibition IC50

| chelation of Fe^3+ [1] | IC50 [3] | SMILES | cytotoxicity against normal cells [2] |
| --- | --- | --- | --- |
| does not chelate Fe^3+ ions |  | O=C(N/N=C/c1c(O)ccc2ccccc12)c1ccccc1O [E-3a, 2-hydroxy-N'-((2-hydroxynaphthalen-1-yl)methylene)benzohydrazide] | little cytotoxicity |
|  | 30 to 100 nM | Nc1ccn([C@@H]2O[C@H](CO)[C@@H](O)C2(F)F)c(=O)n1 [gemcitabine] |  |
